According to patent US20200063108A1, “THREE-DIMENSIONAL TISSUE STRUCTURES” (Dana-Farber Cancer Institute, Inc., priority 2017, published 2020):

Tests used:
Type in all cases: cell-based
MDA-MB-231 2-D cultures = experiment: Longitudinal exposure of MDA-MB-231 2-D cultures to cytotoxic drugs; conditions: 100 nM, 2D culture
Procedure: (§1) FIG. 1: Right: Longitudinal exposure of MDA-MB-231 3-D organoids and 2-D cultures to cytotoxic drugs (100 nM). […] Left: H&E staining of day-15 drug-refractory MDA-MB-231 organoids and respective control.
(§2) Viability is determined by methods known in the art. A preferred method to determine cell viability is the measurement of bioluminescence in cells stably transfected with the luciferase expression vector upon addition of the luciferase substrate. An alternative method to determine cell viability is the measurement of fluorescence in cells stably transfected with the expression vectors of fluorescent protein (e.g. GFP or RFP). Alternatively, the cell viability can be measured by ATP-based assays; for example the Cell-Titer Glow assay. Alternatively, the cell viability can be measured by colorimetric assays, for example the MTT assay. Alternatively, cell viability can be measured by conventional or automated microscopy methods as determined by the size and shape of the cancer organoids. Alternatively, cell viability can be measured by assays measuring mitochondrial function such as the BH3 profiling assay. […]

MDA-MB-231 3-D organoids = experiment: Longitudinal exposure of MDA-MB-231 3-D organoids to cytotoxic drugs; conditions: 100 nM, 3D culture spheroids
Procedure: as §1, §2

[1] = test system: breast cancer patient-derived 3-D organoids; experiment: Regrowth of breast cancer patient-derived 3-D organoids after docetaxel washout; conditions: 100 nM for 10 days, then 8 weeks after washout
Procedure: FIG. 11: Breast cancer patient-derived 3-D organoids treated with DMSO-control (left) or 100 nM Docetaxel (center) for 10 days, and 8 weeks after docetaxel washout (right).

[2] = test system: prostate cancer patient-derived 3-D organoids; experiment: Exposure of prostate cancer patient-derived 3-D organoids to cytotoxic drugs; conditions: 100 nM, 3D conditions with Wnt-stimulator R-spondin, in vitro
Procedure: FIG. 2. Left: Exposure of prostate cancer patient-derived 3-D organoids, cultured in 3D conditions in the presence of Wnt-stimulator R-spondin, to cytotoxic drugs (100 nM; vinblastine highlighted with red) and validation of vinblastine response in the respective patient-derived xenograft (PDX) model. […] Right: Histological similarities of in-vitro vs. in-vivo drug-refractory malignant foci.
as §2

[3] = test system: drug-refractory prostate cancer 3-D organoids; experiment: Re-exposure of drug-refractory prostate cancer 3-D organoids to afatinib and vinblastine; conditions: re-exposed to afatinib and vinblastine (100 nM) 5 days after first exposure drug-washout
Procedure: FIG. 10: Afatinib-refractory and vinblastine-refractory prostate cancer 3-D organoids longitudinally exposed to afatinib and vinblastine (100 nM) 5 days after the first exposure drug-washout.

SMILES | cell killing (viability curve) (MDA-MB-231 2-D cultures) | cell killing (viability curve) (MDA-MB-231 3-D organoids) | regrowth of drug-refractory organoids after drug washout [1] | cell viability curve [2] | cross-resistance of organoids refractory to the named drug [3]
CC(=O)O[C@@]12CO[C@@H]1C[C@H](O)[C@@]1(C)C(=O)[C@H](O)C3=C(C)[C@@H](OC(=O)[C@H](O)[C@@H](NC(=O)OC(C)(C)C)c4ccccc4)C[C@@](O)([C@@H](OC(=O)c4ccccc4)[C@H]21)C3(C)C [docetaxel] | kills virtually all the cells | only a fraction of the cells | ability of drug-refractory organoid to regenerate fully-grown organoids |  | 
CC[C@]1(O)C[C@@H]2CN(CCc3c([nH]c4ccccc34)[C@@](C(=O)OC)(c3cc4c(cc3OC)N(C)[C@H]3[C@@](O)(C(=O)OC)[C@H](OC(C)=O)[C@]5(CC)C=CCN6CC[C@]43[C@@H]65)C2)C1 [vinblastine] |  |  |  | cell viability curve plateauing | cross-resistance
